# Assay results as given in PMC10907560, “Significant reduction of activity retention in the kidneys via optimized linker sequences in radiohybrid-based minigastrin analogs” (EJNMMI Research, 2024).
# Molecular target: T1, cholecystokinin-2 receptor (CCK-2R) (Rattus norvegicus, UniProt P30553)
# T1 construct: host or cells: AR42J (rat pancreatic cancer cells)
# T1 sequence (P30553 1-452): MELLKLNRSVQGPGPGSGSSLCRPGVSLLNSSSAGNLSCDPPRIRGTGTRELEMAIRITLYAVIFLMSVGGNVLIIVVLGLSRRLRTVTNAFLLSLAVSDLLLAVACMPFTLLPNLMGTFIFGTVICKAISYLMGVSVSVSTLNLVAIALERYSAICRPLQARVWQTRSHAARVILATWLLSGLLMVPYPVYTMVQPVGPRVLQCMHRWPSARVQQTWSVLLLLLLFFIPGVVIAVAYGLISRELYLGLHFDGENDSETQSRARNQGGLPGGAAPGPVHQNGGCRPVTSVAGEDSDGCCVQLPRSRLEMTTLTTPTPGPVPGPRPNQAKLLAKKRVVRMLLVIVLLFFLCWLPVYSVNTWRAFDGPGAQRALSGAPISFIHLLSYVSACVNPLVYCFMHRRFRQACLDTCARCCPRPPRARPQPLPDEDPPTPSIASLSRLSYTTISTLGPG
# Test: CCK-2R affinity (apparent IC50), competitive binding on AR42J cells
# Conditions: natLu-labeled peptide, 3 h, 37 °C, [177Lu]Lu-DOTA-PP-F11N (0.3 pmol) as radiolabeled reference
# Experimental: On the next day, medium was removed, cells were washed with PBS (300 µL) and fresh nutrient medium supplemented with 5% BSA (200 µL) was added. The peptide of interest (25 µL in nutrient medium) in increasing concentrations (10^−10 to 10^−4 M) in triplicate as well as [^177Lu]Lu-DOTA-PP-F11N (25 μL, 0.3 pmol) were added to the cells and the assay was incubated for 3 h at 37 °C. Subsequently, the supernatant was collected, cells were washed with PBS (300 µL) and both fractions were unified. Cell lysis was conducted by addition of NaOH (300 µL, 1 N) and incubation for at least 20 min at room temperature. The supernatant was collected, the respective wells were washed with NaOH (300 µL, 1 N) and both fractions were unified. Radioactivity of all fractions collected was quantified using a γ-counter (PerkinElmer Inc., Waltham, United States). Apparent half-maximal inhibitory concentration (IC50) was calculated via the GraphPad PRISM software (GraphPad Software Inc., La Jolla, United States).
# CCK-2R positive rat pancreatic cancer cells AR42J (CLS GmbH, Eppelheim, Germany) were cultivated in monolayers in CELLSTAR® cell culture flask (Greiner Bio-One GmbH, Frickenhausen, Germany) at 37°C in a humidified atmosphere (5% CO2). Therefor, a HERAcell 150i-Incubator (Thermo Fisher Scientific Inc., Waltham, United States) was used. RPMI 1640 medium, supplemented with 5 mM L-Gln 5 mL non-essential amino acids (100×) and 10% FCS, was used for cell nutrition. Detachment of the cells for passaging was conducted with a Dulbecco’s PBS solution supplemented with 0.1% EDTA (v/v). Cell numbers were determined with a Neubauer hemocytometer (Paul Marienfeld, Lauda-Königshofen, Germany). All operations requiring sterile conditions, were accomplished using a MSC-Advantage safety workbench (Thermo Fisher Scientific Inc., Waltham, United States).
# Table S1. Affinity, lipophilicity and human serum albumin binding data of the compounds evaluated. Affinity data were determined on AR42J cells (2.0 × 10^5 cells/well) and [^177Lu]Lu-DOTA-PP-F11N (0.3 pmol/well) as radiolabeled reference (3 h, 37 °C, RPMI 1640, 5 mM L-Gln, 5 mL non-essential amino acids (100×), 10% FCS + 5% BSA (v/v)).
structure (smiles),measurement,setting,value
"CCCC[C@@H](C(=O)N[C@@H](CC(=O)O)C(=O)N[C@@H](Cc1cccc2ccccc12)C(N)=O)N(C)C(=O)[C@H](Cc1c[nH]c2ccccc12)NC(=O)CCOCCOCCOCCOCCNC(=O)CC[C@@H](NC(=O)CCOCCOCCOCCOCCOCCNC(=O)CC[C@@H](NC(=O)[C@@H](CNC(=O)C[N+](C)(C)Cc1ccc([Si](F)(C(C)(C)C)C(C)(C)C)cc1)NC(=O)CN1CCN(CC(=O)O)CCN(CC(=O)O)CCN(CC(=O)O)CC1)C(=O)O)C(=O)O [[^nat/177Lu]Lu-DOTA-rhCCK-91, DOTA-D-Dap(SiFAlin)-D-γ-Glu-(PEG)4-D-γ-Glu-(PEG)3-Trp-(N-Me)Nle-Asp-1-Nal-NH2, metal not drawn]",IC50,"n = 3, listed as [^177/natLu]Lu-DOTA-rhCCK-91",8.6 ± 0.7 nM
same,IC50,"n = 3, listed as [^natLu]Lu-DOTA-rhCCK-91",8.56 ± 0.66 nM
